Measured values from patent US7872051B2 (priority 2004, dated 2011).
Read-outs that look alike come from different tables or passages of the source.

Assays:
[1] = test system: influenza virus A/Sydney/5/97; assay: Trial 1 virucidal assay of PMD (CPE on MDCK cells); format: cell-based
MDCK cells [2] = conditions: 5 min exposure, count after 24 h vs cell only control, rounded to nearest 5
Method: (§1) PMD was tested at the following concentrations: • 2% w/v (20 mg/ml) • 1% w/v (10 mg/ml) • 0.5% w/v (5 mg/ml • 0.25% w/v (2.5 mg/ml)
(§2) Each PMD concentration was made up in 100% isopropyl and then sufficient cell infection media added such that the final concentration of isopropyl was always 10%.
(§3) The different concentrations were made up by taking into account the initial dilution of the compound that occurs in the toxicity assay (step 1) and virucidal assay (step 4). The dilution factors for both assays are 2 and 1.1, respectively.
(§4) Each of the four PMD concentrations was tested for toxicity on each of the three cell lines.
(§5) A “cell only” control was also implemented by following the same procedure but substituting PMD (step 1) with infection media.
(§6) The procedure for the toxicity assay was as follows: • 1) Cells (200 μl), at 2×10^6 cells/ml, were added to PMD (200 μl) and the reaction incubated for 5 minutes at room temperature. • 2) The reaction was terminated by the addition of infection media (3.6 ml) appropriate to the cell line. • 3) The terminated reaction (1 ml) was added, in triplicate, to the relevant wells of a 24-well plate. • 4) The cells were incubated for 24 hours at 37° C., 5% CO2. • 5) After the incubation period, the cells were trypsinised, the appropriate triplicate wells pooled together and a viable cell count performed using Trypan blue dye. • 6) The toxicity of PMD was determined by calculating the percentage cell survival of the test cells in comparison to the control cells.

Vero cells = conditions: 5 min exposure, count after 24 h vs cell only control, rounded to nearest 5
Method: as §1, §2, §3, §4, §5, §6

[3] = test system: A/Sydney/5/97 (human influenza virus H3N2); assay: Trial 2 virucidal assay, A/Sydney/5/97 on MDCK cells; format: cell-based; conditions: for Kill rate: line gradient of FIG. 4
Urbani SARS = format: cell-based, Urbani SARS virus; conditions: for Kill rate: line gradient of FIG. 3
[4] = test system: HSV-1 (Herpes Simplex Virus type 1); assay: Trial 2 virucidal assay, HSV-1 on Vero cells; format: cell-based; conditions: for Kill rate: gradient between the 1 minute and 5 minute time-points (FIG. 2)
C1008 cells = conditions: 5 min exposure, count after 24 h vs cell only control, rounded to nearest 5
Method: as §1, §2, §3, §4, §5, §6

MDCK cells [5] = assay: Trial 1 acute toxicity assay of PMD; conditions: PMD 2%, 0.5%, 0.25% and 0.1% w/v
Method: The toxicity of PMD at the following concentrations in cell maintenance media was determined on a cell line with MDCK cells: • 2.5 mg/ml (0.25% w/v) • 5 mg/ml (0.5% w/v) • 20 mg/ml (2% w/v)
A cell only control was also implemented by following the same procedure (steps 2-6), but substituting PMD with cell maintenance media.
Toxicity was determined by toxicity-induced CPE (cytopathic effect) observations, which was visually scored using microscopy techniques. Toxicity-induced CPE is characterised by burst or rounded cells, which have become dissociated from their neighbouring cells, or the presence of cellular debris. […]

Solubility in water = format: physicochemical

## CC1CCC(C(C)(C)O)C(O)C1 (stereo not drawn) [PMD, p-menthane-3,8-diol]
[1]
  Viral replication as evidenced by cell survival: no viral replication
[1]; PMD 0.5%, 0.25% and 0.1%, MDCK cells (cells were killed)
  Virucidal effect: no virucidal effect
MDCK cells [2]; PMD 0.25% w/v
  Percentage cell survival: 40%
MDCK cells [2]; PMD 0.5% w/v
  Percentage cell survival: 100%
MDCK cells [2]; PMD 2% w/v
  Percentage cell survival: 85%
Vero cells; PMD 0.25% w/v
  Percentage cell survival: 65%
Vero cells; PMD 0.5% w/v
  Percentage cell survival: 65%
Vero cells; PMD 2% w/v
  Percentage cell survival: 100%
[3]; 10 seconds' contact time
  PMD concentration desirable for a significant antiviral action: at least 1 % w/v
[3]; A/Sydney/5/97, PMD 0.25% w/v, contact time 10 seconds
  Log reduction in viral titre: 0.4 −log10 TCID50/ml
[3]; A/Sydney/5/97, PMD 0.25% w/v, contact time 30 seconds
  Log reduction in viral titre: 1.9 −log10 TCID50/ml
[3]; A/Sydney/5/97, PMD 0.25% w/v, contact time 60 seconds (1 minute)
  Log reduction in viral titre: 1.9 −log10 TCID50/ml
[3]; A/Sydney/5/97, PMD 0.25% w/v, contact time 300 seconds (5 minutes)
  Log reduction in viral titre: 1.4 −log10 TCID50/ml
[3]; A/Sydney/5/97, PMD 0.25% w/v
  Kill rate: 4.5 −log10 TCID50/ml/min
[3]; A/Sydney/5/97, PMD 0.5% w/v, contact time 10 seconds
  Log reduction in viral titre: 0.4 −log10 TCID50/ml
[3]; A/Sydney/5/97, PMD 0.5% w/v, contact time 30 seconds
  Log reduction in viral titre: 1.9 −log10 TCID50/ml
[3]; A/Sydney/5/97, PMD 0.5% w/v, contact time 60 seconds (1 minute)
  Log reduction in viral titre: 2.4 −log10 TCID50/ml
[3]; A/Sydney/5/97, PMD 0.5% w/v, contact time 300 seconds (5 minutes)
  Log reduction in viral titre: 1.9 −log10 TCID50/ml
[3]; A/Sydney/5/97, PMD 0.5% w/v
  Kill rate: 4.8 −log10 TCID50/ml/min
[3]; A/Sydney/5/97, PMD 1% w/v, contact time 10 seconds
  Log reduction in viral titre: 1.9 −log10 TCID50/ml
[3]; A/Sydney/5/97, PMD 1% w/v, contact time 30 seconds
  Log reduction in viral titre: 2.4 −log10 TCID50/ml
[3]; A/Sydney/5/97, PMD 1% w/v, contact time 60 seconds (1 minute)
  Log reduction in viral titre: 2.4 −log10 TCID50/ml
[3]; A/Sydney/5/97, PMD 1% w/v, contact time 300 seconds (5 minutes)
  Log reduction in viral titre: 2.4 −log10 TCID50/ml
[3]; A/Sydney/5/97, PMD 1% w/v
  Kill rate: 12.0 −log10 TCID50/ml/min
[3]; A/Sydney/5/97, PMD 2% w/v, contact time 10 seconds
  Log reduction in viral titre: 1.9 −log10 TCID50/ml
[3]; A/Sydney/5/97, PMD 2% w/v, contact time 30 seconds
  Log reduction in viral titre: 2.4 −log10 TCID50/ml
[3]; A/Sydney/5/97, PMD 2% w/v, contact time 60 seconds (1 minute)
  Log reduction in viral titre: 2.4 −log10 TCID50/ml
[3]; A/Sydney/5/97, PMD 2% w/v, contact time 300 seconds (5 minutes)
  Log reduction in viral titre: 2.4 −log10 TCID50/ml
[3]; A/Sydney/5/97, PMD 2% w/v
  Kill rate: 12.0 −log10 TCID50/ml/min
[3]; PMD 1% w/v and 2% w/v, all contact time points
  Reduction of viral titre: 1.9-2.4 log10 TCID50/ml
[3]; all concentrations tested, except 0.25% w/v and 0.5% w/v at the 10 second contact time
  Reduction of infection (significance): significantly reduces
[3]; influenza virus A/Sydney/5/97
  Effectiveness against the virus: effective
[3]; the two lower concentrations (0.25%, 0.5% w/v), 30 second to 5 minute contact times
  Reduction of viral titre: 1.9-2.4 log10 TCID50/ml
Urbani SARS; PMD 0.25%, 10 seconds' exposure
  Antiviral effect: effective
Urbani SARS; Urbani SARS
  Effectiveness against the virus: effective
Urbani SARS; Urbani SARS, PMD 0.25% w/v, contact time 10 seconds
  Log reduction in viral titre: 1 −log10 TCID50/ml
Urbani SARS; Urbani SARS, PMD 0.25% w/v, contact time 30 seconds
  Log reduction in viral titre: 2 −log10 TCID50/ml
Urbani SARS; Urbani SARS, PMD 0.25% w/v, contact time 60 seconds (1 minute)
  Log reduction in viral titre: 1.5 −log10 TCID50/ml
Urbani SARS; Urbani SARS, PMD 0.25% w/v, contact time 300 seconds (5 minutes)
  Log reduction in viral titre: 2 −log10 TCID50/ml
Urbani SARS; Urbani SARS, PMD 0.25% w/v
  Kill rate: 4.0 −log10 TCID50/ml/min
Urbani SARS; Urbani SARS, PMD 0.5% w/v, contact time 10 seconds
  Log reduction in viral titre: 1.5 −log10 TCID50/ml
Urbani SARS; Urbani SARS, PMD 0.5% w/v, contact time 30 seconds
  Log reduction in viral titre: 2.5 −log10 TCID50/ml
Urbani SARS; Urbani SARS, PMD 0.5% w/v, contact time 60 seconds (1 minute)
  Log reduction in viral titre: 2.5 −log10 TCID50/ml
Urbani SARS; Urbani SARS, PMD 0.5% w/v, contact time 300 seconds (5 minutes)
  Log reduction in viral titre: 2.5 −log10 TCID50/ml
Urbani SARS; Urbani SARS, PMD 0.5% w/v
  Kill rate: 6.0 −log10 TCID50/ml/min
Urbani SARS; Urbani SARS, PMD 1% w/v, contact time 10 seconds
  Log reduction in viral titre: 2 −log10 TCID50/ml
Urbani SARS; Urbani SARS, PMD 1% w/v, contact time 30 seconds
  Log reduction in viral titre: 1.5 −log10 TCID50/ml
Urbani SARS; Urbani SARS, PMD 1% w/v, contact time 60 seconds (1 minute)
  Log reduction in viral titre: 2 −log10 TCID50/ml
Urbani SARS; Urbani SARS, PMD 1% w/v, contact time 300 seconds (5 minutes)
  Log reduction in viral titre: 1.5 −log10 TCID50/ml
Urbani SARS; Urbani SARS, PMD 1% w/v
  Kill rate: 6.0 −log10 TCID50/ml/min
Urbani SARS; Urbani SARS, PMD 2% w/v, contact time 10 seconds
  Log reduction in viral titre: 1.5 −log10 TCID50/ml
Urbani SARS; Urbani SARS, PMD 2% w/v, contact time 30 seconds
  Log reduction in viral titre: 1 −log10 TCID50/ml
Urbani SARS; Urbani SARS, PMD 2% w/v, contact time 60 seconds (1 minute)
  Log reduction in viral titre: 1.5 −log10 TCID50/ml
Urbani SARS; Urbani SARS, PMD 2% w/v, contact time 300 seconds (5 minutes)
  Log reduction in viral titre: 1.5 −log10 TCID50/ml
Urbani SARS; Urbani SARS, PMD 2% w/v
  Kill rate: 6.0 −log10 TCID50/ml/min
Urbani SARS; all four concentrations, all contact times
  Reduction in viral titre (significance): significant reductions in viral titre
[4]; HSV-1
  Effectiveness against the virus: effective
[4]; HSV-1, PMD 0.25% w/v, contact time 10 seconds
  Log reduction in viral titre: 0 −log10 TCID50/ml
[4]; HSV-1, PMD 0.25% w/v, contact time 30 seconds
  Log reduction in viral titre: 0 −log10 TCID50/ml
[4]; HSV-1, PMD 0.25% w/v, contact time 60 seconds (1 minute)
  Log reduction in viral titre: 0 −log10 TCID50/ml
[4]; HSV-1, PMD 0.25% w/v, contact time 300 seconds (5 minutes)
  Log reduction in viral titre: 0.5 −log10 TCID50/ml
[4]; HSV-1, PMD 0.5% w/v, contact time 10 seconds
  Log reduction in viral titre: 0 −log10 TCID50/ml
[4]; HSV-1, PMD 0.5% w/v, contact time 30 seconds
  Log reduction in viral titre: 0 −log10 TCID50/ml
[4]; HSV-1, PMD 0.5% w/v, contact time 60 seconds (1 minute)
  Log reduction in viral titre: 0 −log10 TCID50/ml
[4]; HSV-1, PMD 0.5% w/v, contact time 300 seconds (5 minutes)
  Log reduction in viral titre: 0 −log10 TCID50/ml
[4]; HSV-1, PMD 1% w/v, contact time 10 seconds
  Log reduction in viral titre: 0 −log10 TCID50/ml
[4]; HSV-1, PMD 1% w/v, contact time 30 seconds
  Log reduction in viral titre: 0.5 −log10 TCID50/ml
[4]; HSV-1, PMD 1% w/v, contact time 60 seconds (1 minute)
  Log reduction in viral titre: 0.5 −log10 TCID50/ml
[4]; HSV-1, PMD 1% w/v, contact time 300 seconds (5 minutes)
  Log reduction in viral titre: 1.5 −log10 TCID50/ml
[4]; HSV-1, PMD 1% w/v
  Kill rate: 0.3 −log10 TCID50/ml/min
[4]; HSV-1, PMD 2% w/v, contact time 10 seconds
  Log reduction in viral titre: 0 −log10 TCID50/ml
[4]; HSV-1, PMD 2% w/v, contact time 30 seconds
  Log reduction in viral titre: 0 −log10 TCID50/ml
[4]; HSV-1, PMD 2% w/v, contact time 60 seconds (1 minute)
  Log reduction in viral titre: 0.5 −log10 TCID50/ml
[4]; HSV-1, PMD 2% w/v, contact time 300 seconds (5 minutes)
  Log reduction in viral titre: 2.5 −log10 TCID50/ml
[4]; HSV-1, PMD 2% w/v
  Kill rate: 0.5 −log10 TCID50/ml/min
[4]; PMD 0.25% w/v and 0.5% w/v
  Antiviral activity: did not exhibit any antiviral activity
[4]; PMD 1% w/v and 2% w/v, 5 minute contact time
  Reduction in viral titre (significance): Significant reduction in viral titre
[4]; all other concentrations and contact times
  Reduction in viral titre (significance): no significant reduction in viral titre
[4]; contact time of 5 minutes
  PMD concentration desirable for a significant effect: at least 1 % w/v
C1008 cells; C1008, PMD 0.25% w/v
  Percentage cell survival: 80%
C1008 cells; C1008, PMD 0.5% w/v
  Percentage cell survival: 60%
C1008 cells; C1008, PMD 2% w/v
  Percentage cell survival: 100%
MDCK cells [5]
  Toxicity on MDCK cells: do not exhibit toxicity
Solubility in water
  Solubility in water: poorly soluble
